Assay [1] has as its system cellular histone deacetylase enzymatic activity in Jurkat E6-1 cells. Kind of assay: Inhibition of cellular HDAC activity in Jurkat E6-1 cells, fluorogenic substrate Boc-Lys(Tfa)-AMC. Type of assay: cell-based. As to conditions: Homo sapiens, read-out: Cell IC50. The source says:
Analysis of Inhibition of Cellular HDAC Activity with Class IIa Histone Deacetylase (HDAC) Inhibitors
The potency of Class IIa Histone Deacetylase (HDAC) inhibitors is quantified by measuring the cellular histone deacetylase enzymatic activity using the fluorogenic substrate, Boc-Lys(Tfa)-AMC. After penetration in Jurkat E6-1 cells, the substrate is deacetylated to Boc-Lys-AMC. After cell lysis and cleavage by trypsin, the fluorophore AMC is released from the deacetylated substrate only. The fluorescence of the sample is directly related to the histone deacetylase activity in the sample.
Jurkat E6.1 cell culture and plating. Jurkat E6.1 cells are cultured according to standard cell culture protocols in Jurkat E6.1 Growth Media (RPMI without phenol red, 10% FBS, 1 mM HEPES, and 1 mM Sodium Pyruvate). Jurkat E6.1 cells are counted using a Coulter Counter and resuspended in Jurkat E6.1 growth media at a concentration of 75,000 cells/35 μl. 35 μl or 75,000 cells is seeded into Greiner microtitre assay plates. The plates are then incubated at 37° C. and 5% CO2 while other assay components are being prepared.
Serially dilute HDAC inhibitor compounds. Serial dilutions of the HDAC inhibitors and control reference compound (1-(5-(3-((4-(1,3,4-oxadiazol-2-yl)phenoxy)methyl)-1,2,4-oxadiazol-5-yl)thiophen-2-yl)-2,2,2-trifluoroethanone) are made by first resuspending the lyophilized compound to a final concentration of 10 mM in […]. Stocks of 70 μl aliquots of the 10 mM compound in DMSO are prepared and stored at −20° C. From one stock aliquot of each compound to be tested and the reference compound, a 16-point serial dilution is prepared according to Table 1 using a 125 μl 16-channel Matrix multi-channel pipette.
2 μl (200×) of each diluted solution and each control (full activity: 100% DMSO alone or full inhibition 1 mM) is stamped into V-bottom polypropylene 384-well compound plates using either the Bravo, Janus, or 12.5 μl 16-channel Matrix multi-channel pipette. Each well with the 200× compound solution is diluted 1:20 by the addition of 38 μl Jurkat assay buffer+DMSO (9.5% DMSO, RPMI without phenol red, 0.09% FBS, 9 mM Hepes, and 0.9 mM Sodium Pyruvate equilibrated to r.t.)
Prepare 5× (500 μM) Boc-Lys(Tfa)-AMC substrate. 5× (500 μM) substrate is prepared just prior to the addition to the assay. The 5× substrate is prepared by diluting a 100 mM Boc-Lys(Tfa)-AMC in DMSO solution 1:200 by adding it drop-wise to Jurkat assay medium (RPMI without phenol red, 0.1% FBS, 10 mM Hepes, and 1 mM Sodium Pyruvate equilibrated to 37° C.) while vortexing at slow speed to prevent precipitation.
Prepare 3× Lysis Buffer. 10 mL of 3× lysis buffer is prepared with 8.8 mL of 3× stock lysis buffer (50 mM Tris-HCl, pH 8.0, 137 mM NaCl, 2.7 mM KCl, 1 mM MgCl2, 1% Nonidet P40 Substitute equilibrated to r.t.) and 1.2 mL of 3 mg/mL Trypsin equilibrated to r.t.
Assay. 5 μl of each solution of 1:20 diluted compound from above is transferred to the Greiner microtitre assay plates with 75,000 cells/well using the Bravo. Cells are then incubated for 2 hours at 37° C. and 5% CO2. The assay is then started by adding 10 μl of 5× (500 μM) substrate to the assay plate using either the Bravo or 16-channel Matrix multi-channel pipette. The cells are then incubated for 3 hours at 37° C. and 5% CO2. Next, 25 μl of 3× lysis buffer is added to each well using either the 125 μl 16 channel pipette or the Bravo. The assay plate is then incubated overnight (15-16 hours) at 37° C. and 5% CO2. The following day, the plates are shaken on an orbital shaker for 1 minute at 900 rpm. Finally the top read fluorescence (Excitation: 355 nm, Emission: 460 nm) is measured using PerkinElmer EnVision.

In assay [2] the target is human catalytic domain HDAC4 protein (amino acids 648-1032) (Homo sapiens (Human), UniProt P56524). Kind of assay: Inhibition of HDAC4 catalytic domain enzymatic activity, fluorogenic substrate Boc-Lys(Tfa)-AMC. As to conditions: HDAC4 catalytic domain enzyme, read-out: Biochemical HDAC4 IC50. The source says:
Analysis of Inhibition of HDAC4 with Class IIa Histone Deacetylase (HDAC) Inhibitors
The potency of Class IIa Histone Deacetylase (HDAC) inhibitors is quantified by measuring the Histone Deacetylase 4 (HDAC4) catalytic domain enzymatic activity using the fluorogenic substrate, Boc-Lys(Tfa)-AMC. The substrate is deacetylated to Boc-Lys-AMC by HDAC4. Cleavage by trypsin results in the release of the fluorophore AMC from the deacetylated substrate. The fluorescence of the sample is directly related to the histone deacetylase activity in the sample.
Serially dilute HDAC inhibitor compounds. […] Stocks of 6 μl aliquots of the 10 mM compound in DMSO are prepared and stored at […]. From one stock aliquot of each compound to be tested and the reference compound, a 16-point serial dilution is prepared according to Table 1 using a 125 μl 16-channel Matrix multi-channel pipette (Matrix Technologies Ltd).
2 μl (200×) of each diluted solution and each control (full activity: 100% DMSO alone or full inhibition 1 mM) is stamped into V-bottomed polypropylene 384-well compound plates using either the Bravo (384-well head from Agilent) or 12.5 μl 16-channel Matrix multi-channel pipette (Matrix Technologies Ltd).
Prepare HDAC4 catalytic domain enzyme (0.2 μg/mL).
Prepare 5× ([…]) Boc-Lys(Tfa)-AMC Substrate. 5× (50 μM) substrate is prepared just prior to the addition to the assay. A 1 mM substrate stock is made by diluting a 100 mM Boc-Lys(Tfa)-AMC in DMSO solution 1:100 by adding it drop-wise to assay buffer (equilibrated to r.t.) while vortexing at slow speed to prevent precipitation. The 5× substrate is prepared by diluting the 1 mM substrate solution 1:20 by adding it drop-wise to assay buffer (equilibrated to r.t.) while vortexing at slow speed to prevent precipitation.
Prepare 3× (30 μM) Developer/Stop Solution.
Assay. 5 μl of each solution of 1:20 diluted compound from above is transferred to a clear bottomed, black, 384-well assay plate using the Bravo or the Janus (384-well MDT head from Perkin Elmer). Using a 16-channel Matrix multi-channel pipette, 35 μl of the working solution of HDAC4 catalytic domain enzyme (0.2 μg/mL in assay buffer) is transferred to the assay plate. […] The assay plate is then shaken for two minutes on an orbital shaker at 900 rpm (rotations per minute). Next the plate is incubated for 15 minutes at 37° C. The reaction is stopped by adding 25 μl of 3× (3 μM) developer/stop solution to the assay plates using either the Bravo, Janus or a 16-channel Matrix multi-channel pipette. Assay plates are then shaken for 5 minutes on an orbital shaker at 1200 rpm. Next, the assay plates are incubated at 37° C. for 1 hour in a tissue culture incubator.

Drawing on US9783488B2 (CHDI Foundation, Inc., priority 2013, dated 2017), this text covers IC50 for 15 molecules.

For orientation: IC50 means the concentration needed to halve the response being measured.

Chain of human catalytic domain HDAC4 protein (amino acids 648-1032) (P56524 648-1032): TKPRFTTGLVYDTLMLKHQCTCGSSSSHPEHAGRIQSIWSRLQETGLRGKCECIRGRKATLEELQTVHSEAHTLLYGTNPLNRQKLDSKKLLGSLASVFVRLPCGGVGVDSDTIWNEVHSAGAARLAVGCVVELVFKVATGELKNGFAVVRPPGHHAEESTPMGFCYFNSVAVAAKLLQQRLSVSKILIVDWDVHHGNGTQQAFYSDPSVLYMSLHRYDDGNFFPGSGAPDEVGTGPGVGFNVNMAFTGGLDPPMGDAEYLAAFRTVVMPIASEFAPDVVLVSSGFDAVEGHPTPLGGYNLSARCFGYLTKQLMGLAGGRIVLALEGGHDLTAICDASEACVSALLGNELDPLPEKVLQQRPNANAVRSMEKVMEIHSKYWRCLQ

In the case of `Cc1c(F)cccc1[C@]1(C(=O)NO)CC[C@H](c2cncnc2)C1` (relative stereo) [Example 3, (±)-(1S*,3S*)-1-(3-fluoro-2-methylphenyl)-N-hydroxy-3-(pyrimidin-5-yl)cyclopentanecarboxamide], the IC50 in assay [1] amounted to 1600 nM; in assay [2], 390 nM.

With `Cc1c(F)cccc1[C@]1(C(=O)NO)CC[C@H](c2ccc(F)cn2)C1` (relative stereo) [Example 11, (1S,3S*)-1-(3-fluoro-2-methylphenyl)-3-(5-fluoropyridin-2-yl)-N-hydroxycyclopentane carboxamide], the IC50 turned out to be 1830 nM in assay [1] and 200 nM in assay [2].

With `Cc1c(F)cccc1[C@]1(C(=O)NO)CC[C@@H](c2ccc(F)cn2)C1` (relative stereo) [Example 12, (1S,3R*)-1-(3-fluoro-2-methylphenyl)-3-(5-fluoropyridin-2-yl)-N-hydroxycyclopentane carboxamide], the IC50 in assay [1] was 2370 nM; in assay [2], 240 nM.

As for `COc1ncc([C@H]2CC[C@@](C(=O)NO)(c3cccc(F)c3C)C2)cc1F` (relative stereo) [Example 44, (1S,3S*)-1-(3-fluoro-2-methylphenyl)-3-(5-fluoro-6-methoxypyridin-3-yl)-N-hydroxycyclopentanecarboxamide], the IC50 was determined as 1700 nM in assay [1] and 330 nM in assay [2].

Take `COc1ncc([C@@H]2CC[C@@](C(=O)NO)(c3cccc(F)c3C)C2)cc1F` (relative stereo) [Example 45, (1S,3R*)-1-(3-fluoro-2-methylphenyl)-3-(5-fluoro-6-methoxypyridin-3-yl)-N-hydroxycyclopentanecarboxamide]: the IC50 in assay [1] stood at 420 nM; in assay [2], 190 nM.

Consider `Cc1c(F)cccc1[C@]1(C(=O)NO)CC[C@@H](c2cnn(C(F)F)c2)C1` (relative stereo) [Example 46, (1S,3R*)-3-(1-(Difluoromethyl)-1H-pyrazol-4-yl)-1-(3-fluoro-2-methylphenyl)-N-hydroxy cyclopentane carboxamide], for which the IC50 in assay [1] came to 540 nM; in assay [2], 95 nM.

In the case of `Cc1c(F)cccc1[C@]1(C(=O)NO)CC[C@@H](c2cnc(OCCN3CCCC3)c(F)c2)C1` (relative stereo) [Example 48, (1 S,3R*)-1-(3-Fluoro-2-methylphenyl)-3-(5-fluoro-6-(2-(pyrrolidin-1-yl)ethoxy)pyridin-3-yl)-N-hydroxycyclopentanecarboxamide], the IC50 in assay [1] was 750 nM; in assay [2] it was 320 nM.

Take `Cc1c(F)cccc1[C@]1(C(=O)NO)CC[C@@H](c2ccnn2C)C1` (relative stereo) [Example 49, (1S,3R*)-1-(3-Fluoro-2-methylphenyl)-N-hydroxy-3-(1-methyl-1H-pyrazol-5-yl)cyclopentane carboxamide]: the IC50 was found to be 400 nM in assay [1] and 170 nM in assay [2].

`Cc1c(F)cccc1[C@]1(C(=O)NO)CC[C@H](c2ccnn2C)C1` (relative stereo) [Example 50, (1S,3S*)-1-(3-Fluoro-2-methylphenyl)-N-hydroxy-3-(1-methyl-1H-pyrazol-5-yl)cyclopentanecarboxamide]: the IC50 worked out at 1800 nM in assay [1] and 250 nM in assay [2].

In the case of `Cc1c(F)cccc1[C@]1(C(=O)NO)CC[C@@H](c2ccc3cnn(C(F)F)c3c2)C1` (relative stereo) [Example 54, (1S,3R*)-3-(1-(difluoromethyl)-1H-indazol-6-yl)-1-(3-fluoro-2-methylphenyl)-N-hydroxycyclopentanecarboxamide], the figures for the IC50 in assay [1] and in assay [2] were 110 nM and 72 nM, respectively.

Regarding `Cc1c(F)cccc1[C@]1(C(=O)NO)CC[C@H](c2ccc3cnn(C(F)F)c3c2)C1` (relative stereo) [Example 55, (1S,3S*)-3-(1-(difluoromethyl)-1H-indazol-6-yl)-1-(3-fluoro-2-methylphenyl)-N-hydroxycyclopentanecarboxamide], the IC50 stood at 160 nM in assay [1] and 46 nM in assay [2].

Turning to `Cc1c(F)cccc1[C@]1(C(=O)NO)CC[C@@H](c2ccc3cnn(C)c3c2)C1` (relative stereo) [Example 56, (1S,3R*)-1-(3-fluoro-2-methylphenyl)-N-hydroxy-3-(1-methyl-1H-indazol-6-yl)cyclopentanecarboxamide], the IC50 in assay [1] came to 230 nM; in assay [2], 140 nM.

`Cc1c(F)cccc1[C@]1(C(=O)NO)CC[C@@H](c2ccn3ccnc3c2)C1` (relative stereo) [Example 57, (1S,3R*)-1-(3-fluoro-2-methylphenyl)-N-hydroxy-3-(imidazo[1,2-a]pyridin-7-yl)cyclopentanecarboxamide]: the IC50 was found to be 180 nM in assay [1] and 98 nM in assay [2].

For the molecule `Cc1c(F)cccc1[C@]1(C(=O)NO)CC[C@H](c2ccn3ccnc3c2)C1` (relative stereo) [Example 58, (1S,3S*)-1-(3-fluoro-2-methylphenyl)-N-hydroxy-3-(imidazo[1,2-a]pyridin-7-yl)cyclopentanecarboxamide], the IC50 worked out at 300 nM in assay [1] and 82 nM in assay [2].

For the molecule `Cc1c(F)cccc1[C@]1(C(=O)NO)CC[C@@H](c2cccc3cnn(C)c23)C1` (relative stereo) [Example 60, (1S,3R*)-1-(3-fluoro-2-methylphenyl)-N-hydroxy-3-(1-methyl-1H-indazol-7-yl)cyclopentanecarboxamide], the figures for the IC50 in assay [1] and in assay [2] were 810 nM and 360 nM, respectively.
